PubChem BioAssay AID256 (DTP/NCI, 2004)
“And” between values parts separate entries of the source, which are not always exact repeats. Equal values may be shown once. Inconclusive results and toxic doses are left out. Rule for the calls: active = survival T/C of 150% or more; inactive = T/C below 125% in these data.

Tested on: CD2F1 mice, L1210 leukemia ip, survival T/C
Assay: NCI In Vivo Anticancer Drug Screen. Data for tumor model L1210 Leukemia (intraperitoneal) in CD2F1 (CDF1) mice
Conditions: endpoint: mean survival time, higher = longer survival
Method in brief: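 Activity against a transplanted murine tumor was judged by comparing the compound group with a vehicle group. The outcome in the treated animals was divided by that in the controls.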

[1] = dose: 6.25 mg/kg/injection, schedule: Q01DX009 (ip), vehicle: Klucel (hydroxypropylcellulose) (HPC)
[2] = dose: 12.5 mg/kg/injection, schedule: Q01DX009 (ip), vehicle: Klucel (hydroxypropylcellulose) (HPC)
[3] = dose: 25.0 mg/kg/injection, schedule: Q01DX009 (ip), vehicle: Klucel (hydroxypropylcellulose) (HPC)
[4] = dose: 50.0 mg/kg/injection, schedule: Q01DX009 (ip), vehicle: Klucel (hydroxypropylcellulose) (HPC)
[5] = dose: 100.0 mg/kg/injection, schedule: Q01DX009 (ip), vehicle: Klucel (hydroxypropylcellulose) (HPC)
[6] = dose: 50.0 mg/kg/injection, schedule: Q01DX009 (ip), vehicle: saline with Tween-80
[7] = dose: 100.0 mg/kg/injection, schedule: Q01DX009 (ip), vehicle: saline with Tween-80
[8] = dose: 200.0 mg/kg/injection, schedule: Q01DX009 (ip), vehicle: saline with Tween-80
[9] = dose: 100.0 mg/kg/injection, schedule: Q01DX001 (ip), vehicle: saline with Tween-80
[10] = dose: 200.0 mg/kg/injection, schedule: Q01DX001 (ip), vehicle: saline with Tween-80
[11] = dose: 400.0 mg/kg/injection, schedule: Q01DX001 (ip), vehicle: saline with Tween-80
[12] = dose: 100.0 mg/kg/injection, schedule: Q04DX003 (ip), vehicle: saline with Tween-80
[13] = dose: 200.0 mg/kg/injection, schedule: Q04DX003 (ip), vehicle: saline with Tween-80
[14] = dose: 400.0 mg/kg/injection, schedule: Q04DX003 (ip), vehicle: saline with Tween-80
[15] = dose: 100.0 mg/kg/injection, schedule: Q04DX002 (ip), vehicle: saline with Tween-80
[16] = dose: 200.0 mg/kg/injection, schedule: Q04DX002 (ip), vehicle: saline with Tween-80
[17] = dose: 400.0 mg/kg/injection, schedule: Q04DX002 (ip), vehicle: saline with Tween-80
[18] = dose: 400.0 mg/kg/injection, schedule: Q01DX009 (ip), vehicle: Klucel (hydroxypropylcellulose) (HPC)
[19] = dose: 25.0 mg/kg/injection, schedule: Q04DX002 (ip), vehicle: saline with Tween-80

Measured: T/C

Cc1ccc2c(ccc(CC(=S)[S-])[n+]2C)c1
inactive: [1] 97 % of control and 107 % of control | [2] 94 % of control and 109 % of control | [3] 93 % of control | [4] 91 % of control and 95 % of control | [5] 90 % of control and 96 % of control

c1ccc2c(c1)OP(OP1Oc3ccccc3O1)O2
inactive: dose: 25.0 mg/kg/injection, schedule: Q01DX009 (ip), vehicle: saline with Tween-80 98 % of control | [6] 98 % of control | [7] 107 % of control | dose: 100.0 mg/kg/injection, schedule: Q04DX003 (ip), vehicle: acetone 103 % of control

COc1cc(C)ccc1Cl
inactive: [7] 101 % of control | [8] 118 % of control

CS(=O)(=O)OCCCN(CCCOS(C)(=O)=O)c1ccc(C=Nc2ccc(-c3csc(COc4ccc(Cl)cc4)n3)cc2)cc1
inactive: [9] 91 % of control | [10] 91 % of control | [11] 95 % of control

CCCC[P+](c1ccccc1)(c1ccccc1)c1ccccc1
inactive: dose: 5.0 mg/kg/injection, schedule: Q01DX009 (ip), vehicle: saline sonified 103 % of control | dose: 5.0 mg/kg/injection, schedule: Q04DX003 (ip), vehicle: saline with Tween-80 97 % of control | dose: 10.0 mg/kg/injection, schedule: Q01DX009 (ip), vehicle: saline sonified 110 % of control | dose: 10.0 mg/kg/injection, schedule: Q04DX003 (ip), vehicle: saline with Tween-80 95 % of control | dose: 20.0 mg/kg/injection, schedule: Q01DX009 (ip), vehicle: saline sonified 120 % of control | dose: 20.0 mg/kg/injection, schedule: Q04DX003 (ip), vehicle: saline with Tween-80 98 % of control

O=c1scc(-c2ccc(Br)cc2)s1
inactive: [2] 93 % of control | [3] 100 % of control

ClC1CN2CCC1CC2 (configuration not stated)
inactive: dose: 12.5 mg/kg/injection, schedule: Q01DX009 (ip), vehicle: saline 95 % of control | dose: 25.0 mg/kg/injection, schedule: Q01DX009 (ip), vehicle: saline 90 % of control and 105 % of control | dose: 50.0 mg/kg/injection, schedule: Q01DX009 (ip), vehicle: saline 93 % of control and 94 % of control

CC(=O)N(C)c1ccc(NC(=O)Nc2ccc(C)c([N+](=O)[O-])c2)cc1
inactive: [6] 102 % of control | [7] 94 % of control | [8] 90 % of control

CCOC(=O)C(C)CN(CC(C)C(=O)OCC)C(C)(C)C (configuration not stated)
inactive: [9] 112 % of control | [10] 100 % of control

COc1ccc(C(O)c2nnc(C(O)c3ccc(OC)cc3)nn2)cc1 (configuration not stated)
inactive: [12] 86 % of control | [13] 89 % of control | [14] 92 % of control

COC(=O)C(N)CSCSCc1ccccc1 (configuration not stated)
inactive: dose: 25.0 mg/kg/injection, schedule: Q01DX005 (ip), vehicle: water 101 % of control | dose: 50.0 mg/kg/injection, schedule: Q01DX005 (ip), vehicle: water 93 % of control | dose: 100.0 mg/kg/injection, schedule: Q01DX005 (ip), vehicle: water 93 % of control

CN(C(=O)c1cccnc1)c1ccccc1
inactive: [7] 98 % of control | [8] 101 % of control | dose: 400.0 mg/kg/injection, schedule: Q01DX009 (ip), vehicle: saline with Tween-80 103 % of control

CCOC(=O)C(C(=O)COC)C(=O)OCC
inactive: dose: 25.0 mg/kg/injection, schedule: Q01DX009 (ip), vehicle: water 102 % of control | dose: 50.0 mg/kg/injection, schedule: Q01DX009 (ip), vehicle: water 97 % of control | dose: 100.0 mg/kg/injection, schedule: Q01DX009 (ip), vehicle: water 97 % of control | dose: 200.0 mg/kg/injection, schedule: Q01DX009 (ip), vehicle: water 94 % of control

CCOC(=O)CNC(=O)NC
inactive: dose: 100.0 mg/kg/injection, schedule: Q01DX009 (ip), vehicle: saline 100 % of control | dose: 200.0 mg/kg/injection, schedule: Q01DX009 (ip), vehicle: saline 98 % of control | dose: 400.0 mg/kg/injection, schedule: Q01DX009 (ip), vehicle: saline 100 % of control

CCCCCCCCCCCCC(=O)O.[Pb]
inactive: dose: 75.0 mg/kg/injection, schedule: Q01DX001 (ip), vehicle: other 107 % of control | dose: 150.0 mg/kg/injection, schedule: Q01DX001 (ip), vehicle: other 104 % of control | dose: 300.0 mg/kg/injection, schedule: Q01DX001 (ip), vehicle: other 97 % of control

CCOP(=O)(OCC)ON1C(=O)c2cccc3cccc(c23)C1=O
inactive: dose: 3.12 mg/kg/injection, schedule: Q01DX009 (ip), vehicle: Klucel (hydroxypropylcellulose) (HPC) 100 % of control | [1] 95 % of control | [2] 95 % of control | [3] 93 % of control

CCOC(=O)CC(=O)c1[nH]c(C)c(C(=O)OCC)c1C
inactive: [12] 101 % of control | [13] 103 % of control | [14] 101 % of control

CN(C)C(=S)NNC(=O)c1ccc(Cl)cc1
inactive: dose: 25.0 mg/kg/injection, schedule: Q01DX001 (ip), vehicle: saline with Tween-80 98 % of control

COc1cc(Cl)ccc1NC(=O)Nc1cccc(Cl)c1
inactive: [15] 88 % of control | [16] 95 % of control | [17] 95 % of control

Cc1ccc2nc(-c3ccc(Cl)cc3Cl)oc(=O)c2c1
inactive: [15] 100 % of control | [16] 114 % of control | [17] 107 % of control

COc1ccc(C(O)(c2ccccc2)C(OC(=O)CCl)c2ccccc2)cc1 (configuration not stated)
inactive: [10] 91 % of control | [11] 89 % of control

CC(=O)Nc1ccc([N+](=O)[O-])c(C(F)(F)F)c1
inactive: [12] 98 % of control | [13] 103 % of control

NC(=O)CCl
inactive: dose: 100.0 mg/kg/injection, schedule: Q04DX003 (ip), vehicle: saline 110 % of control

CC(=O)Nc1ccc2c(c1)Cc1cc(NC(C)=O)c(Cl)cc1-2
inactive: [12] 103 % of control | [13] 97 % of control | [14] 98 % of control

Cc1cc(N2C(=O)CSC2=S)ccc1Br
inactive: [9] 95 % of control | [10] 97 % of control | [11] 100 % of control

COC1C(CO)OC(n2cnc3c(=S)nc(N)[nH]c32)C1O (configuration not stated)
inactive: [2] 98 % of control and 101 % of control | [3] 101 % of control and 106 % of control | [4] 101 % of control and 106 % of control | [5] 123 % of control | [18] 100 % of control

Cc1ccccc1N
inactive: [7] 102 % of control | [8] 107 % of control

CCOC(=O)C[N+](CC)(CC)CC
inactive: dose: 100.0 mg/kg/injection, schedule: Q04DX003 (ip), vehicle: Klucel (hydroxypropylcellulose) (HPC) 96 % of control | dose: 200.0 mg/kg/injection, schedule: Q04DX003 (ip), vehicle: Klucel (hydroxypropylcellulose) (HPC) 96 % of control | dose: 400.0 mg/kg/injection, schedule: Q04DX003 (ip), vehicle: Klucel (hydroxypropylcellulose) (HPC) 93 % of control

CC1(CC(C)(C)c2ccccc2)OCCO1
inactive: [3] 100 % of control | [4] 98 % of control | [5] 100 % of control | dose: 200.0 mg/kg/injection, schedule: Q01DX009 (ip), vehicle: Klucel (hydroxypropylcellulose) (HPC) 102 % of control | [18] 100 % of control

NC(CC(=O)c1ccccc1)C(=O)O (configuration not stated)
inactive: dose: 100.0 mg/kg/injection, schedule: Q01DX001 (ip), vehicle: saline 98 % of control | dose: 200.0 mg/kg/injection, schedule: Q01DX001 (ip), vehicle: saline 93 % of control | dose: 400.0 mg/kg/injection, schedule: Q01DX001 (ip), vehicle: saline 90 % of control

NCC1C2CCC(C2)C1CCCNCCCC1C2CCC(C2)C1CN (configuration not stated)
inactive: dose: 6.25 mg/kg/injection, schedule: Q04DX002 (ip), vehicle: saline with Tween-80 98 % of control | dose: 12.5 mg/kg/injection, schedule: Q04DX002 (ip), vehicle: saline with Tween-80 107 % of control | [19] 114 % of control

O=C(c1ccccc1)c1ccsc1C(=O)O
inactive: [19] 96 % of control | dose: 50.0 mg/kg/injection, schedule: Q04DX002 (ip), vehicle: saline with Tween-80 96 % of control
